Experimental data taken from the supplement of paper PMC10307832.

Experiments:
Experiment in all cases: relative viability (nuclei count vs DMSO), 5 days (fraction); higher = more cells survive
NCI-H596 = tested on: NCI-H596
Summary of the method: (§1)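 After 5 days of treatment, lung cancer cells in 1536-well plates were fixed and stained in a single step (final 0.05% Triton X-100, 1% formaldehyde, 1 ug/ml Hoechst) and their nuclei counted on 4× images. Treatment had been applied by pin tool the day after seeding as one drug alone or as a fixed anchor-drug dose with five library-drug doses (not always all listed) in √10 steps. Relative viability is the nuclei count of treated wells divided by that of vehicle wells, and values are medians of duplicate plates.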

NCI-H2087 = tested on: NCI-H2087
Summary of the method: as §1

NCI-H650 = tested on: NCI-H650
Summary of the method: as §1

LCLC-97TM1 = tested on: LCLC-97TM1
Summary of the method: as §1

NCI-H1651 = tested on: NCI-H1651
Summary of the method: as §1

PC-3 [JPC-3] = tested on: PC-3 [JPC-3]
Summary of the method: as §1

LC-2-ad = tested on: LC-2-ad
Summary of the method: as §1

ChaGo-K-1 = tested on: ChaGo-K-1
Summary of the method: as §1

LU99A = tested on: LU99A
Summary of the method: as §1

LK-2 = tested on: LK-2
Summary of the method: as §1

NCI-H2342 = tested on: NCI-H2342
Summary of the method: as §1

NCI-H1944 = tested on: NCI-H1944
Summary of the method: as §1

SK-MES-1 = tested on: SK-MES-1
Summary of the method: as §1

HCC-78 = tested on: HCC-78
Summary of the method: as §1

BEN = tested on: BEN
Summary of the method: as §1

NCI-H1355 = tested on: NCI-H1355
Summary of the method: as §1

NCI-H661 = tested on: NCI-H661
Summary of the method: as §1

NCI-H1666 = tested on: NCI-H1666
Summary of the method: as §1

NCI-H838 = tested on: NCI-H838
Summary of the method: as §1

LXF-289 = tested on: LXF-289
Summary of the method: as §1

NCI-H1975 = tested on: NCI-H1975
Summary of the method: as §1

NCI-H358 = tested on: NCI-H358
Summary of the method: as §1

**Q.** Which results are given for `COc1nc(C)cnc1NS(=O)(=O)c1cccnc1-c1ccc(-c2nnco2)cc1` [Zibotentan] + Cc1nc(Nc2ncc(C(=O)Nc3c(C)cccc3Cl)s2)cc(N2CCN(CCO)CC2)n1 [Dasatinib] (partner 0.075 µM)?
**A.** relative viability (NCI-H596; first compound 0.08 µM): 0.68; relative viability (NCI-H596; first compound 0.253 µM): 0.549; relative viability (NCI-H596; first compound 0.8 µM): 0.538; relative viability (NCI-H596; first compound 2.53 µM): 0.561; relative viability (NCI-H2087; first compound 0.08 µM): 0.851; relative viability (NCI-H2087; first compound 0.253 µM): 0.573; relative viability (NCI-H2087; first compound 0.8 µM): 0.923; relative viability (NCI-H2087; first compound 2.53 µM): 0.814; relative viability (NCI-H650; first compound 0.08 µM): 0.49; relative viability (NCI-H650; first compound 0.253 µM): 0.418; relative viability (NCI-H650; first compound 0.8 µM): 0.46; relative viability (NCI-H650; first compound 2.53 µM): 0.468; relative viability (LCLC-97TM1; first compound 0.08 µM): 0.823; relative viability (LCLC-97TM1; first compound 0.253 µM): 0.841; relative viability (LCLC-97TM1; first compound 0.8 µM): 0.882; relative viability (LCLC-97TM1; first compound 2.53 µM): 0.861; relative viability (NCI-H1651; first compound 0.08 µM): 0.462; relative viability (NCI-H1651; first compound 0.253 µM): 0.318; relative viability (NCI-H1651; first compound 0.8 µM): 0.445; relative viability (NCI-H1651; first compound 2.53 µM): 0.451; relative viability (PC-3 [JPC-3]; first compound 0.08 µM): 0.989; relative viability (PC-3 [JPC-3]; first compound 0.253 µM): 1.02; relative viability (PC-3 [JPC-3]; first compound 0.8 µM): 1.01; relative viability (PC-3 [JPC-3]; first compound 2.53 µM): 1.12; relative viability (LC-2-ad; first compound 0.08 µM): 0.688; relative viability (LC-2-ad; first compound 0.8 µM): 0.625; relative viability (LC-2-ad; first compound 2.53 µM): 0.511; relative viability (ChaGo-K-1; first compound 0.08 µM): 0.604; relative viability (ChaGo-K-1; first compound 0.253 µM): 0.646; relative viability (ChaGo-K-1; first compound 0.8 µM): 0.498; relative viability (ChaGo-K-1; first compound 2.53 µM): 0.626; relative viability (LU99A; first compound 0.08 µM): 0.712; relative viability (LU99A; first compound 0.253 µM): 0.694; relative viability (LU99A; first compound 0.8 µM): 0.596; relative viability (LU99A; first compound 2.53 µM): 0.487; relative viability (LK-2; first compound 0.08 µM): 0.293; relative viability (LK-2; first compound 0.253 µM): 0.221; relative viability (LK-2; first compound 0.8 µM): 0.275; relative viability (LK-2; first compound 2.53 µM): 0.318; relative viability (NCI-H2342; first compound 0.08 µM): 0.354; relative viability (NCI-H2342; first compound 0.253 µM): 0.308; relative viability (NCI-H2342; first compound 0.8 µM): 0.309; relative viability (NCI-H2342; first compound 2.53 µM): 0.314; relative viability (NCI-H1944; first compound 0.08 µM): 0.193; relative viability (NCI-H1944; first compound 0.253 µM): 0.211; relative viability (NCI-H1944; first compound 0.8 µM): 0.221; relative viability (NCI-H1944; first compound 2.53 µM): 0.224; relative viability (SK-MES-1; first compound 0.08 µM): 0.333; relative viability (SK-MES-1; first compound 0.253 µM): 0.261; relative viability (SK-MES-1; first compound 0.8 µM): 0.473; relative viability (SK-MES-1; first compound 2.53 µM): 0.363; relative viability (HCC-78; first compound 0.08 µM): 0.513; relative viability (HCC-78; first compound 0.253 µM): 0.313; relative viability (HCC-78; first compound 0.8 µM): 0.391; relative viability (HCC-78; first compound 2.53 µM): 0.309; relative viability (BEN; first compound 0.08 µM): 0.289; relative viability (BEN; first compound 0.253 µM): 0.32; relative viability (BEN; first compound 0.8 µM): 0.316; relative viability (BEN; first compound 2.53 µM): 0.353; relative viability (NCI-H1355; first compound 0.08 µM): 0.691; relative viability (NCI-H1355; first compound 0.253 µM): 0.743; relative viability (NCI-H1355; first compound 0.8 µM): 0.718; relative viability (NCI-H1355; first compound 2.53 µM): 0.832; relative viability (NCI-H661; first compound 0.08 µM): 0.924; relative viability (NCI-H661; first compound 0.253 µM): 0.805; relative viability (NCI-H661; first compound 0.8 µM): 0.943; relative viability (NCI-H661; first compound 2.53 µM): 0.939; relative viability (NCI-H1666; first compound 0.08 µM): 0.883; relative viability (NCI-H1666; first compound 0.253 µM): 0.706; relative viability (NCI-H1666; first compound 0.8 µM): 0.821; relative viability (NCI-H1666; first compound 2.53 µM): 0.907; relative viability (NCI-H838; first compound 0.08 µM): 0.28; relative viability (NCI-H838; first compound 0.253 µM): 0.233; relative viability (NCI-H838; first compound 0.8 µM): 0.283; relative viability (NCI-H838; first compound 2.53 µM): 0.305; relative viability (LXF-289; first compound 0.08 µM): 0.247; relative viability (LXF-289; first compound 0.253 µM): 0.22; relative viability (LXF-289; first compound 0.8 µM): 0.206; relative viability (LXF-289; first compound 2.53 µM): 0.244; relative viability (NCI-H1975; first compound 0.08 µM): 0.378; relative viability (NCI-H1975; first compound 0.253 µM): 0.341; relative viability (NCI-H1975; first compound 0.8 µM): 0.307; relative viability (NCI-H1975; first compound 2.53 µM): 0.376; relative viability (NCI-H358; first compound 0.08 µM): 0.175; relative viability (NCI-H358; first compound 0.253 µM): 0.152; relative viability (NCI-H358; first compound 0.8 µM): 0.151; relative viability (NCI-H358; first compound 2.53 µM): 0.166
